According to EP1136472A1, “ARYL- AND HETEROARYLAMIDES OF CARBOALKOXYSULFANILIC ACIDS” (priority 1998, dated 2000):

Tests used:
[1] = tested on: Herpes Simplex virus of the type I (HSV-I /Leningrad/248/88); test: Antiviral effect on Herpes Simplex virus (cytopathogenic action on Vero cells); type: cell-based; conditions: for Quantity of the unchanged cells: number of cells in 100 visual fields
[2] = tested on: primary culture of human lymphocytes; test: Interferon-inducing activity in primary culture of human lymphocytes (IFN-α immunoenzyme test); type: cell-based
Experimental: Interferon synthesis induction caused by the claimed compounds was conducted on a primary culture of human lymphocytes (it is these cells in a human organism that are the main producers of interferons). To obtain lymphocyte culture, fresh blood (within 12 hours after sampling) from healthy donors (not of group II) was used. To separate lymphocytes, heparinized blood obtained from healthy donor was centrifuged in a density gradient ficoll-verografin of […] in order to extract a fraction of immunocompetent cells. This fraction was selected and diluted with the nutrient medium RPMI-1640, containing 5% of fetal calf serum, 0.3 mg/ml of L-glutamin, 100 un/ml of penicillin, and 50 µg/ml of streptomycin. The concentration of lymphocytes was considered after dying them with methylene blue and calculation of cell number in a chamber of a hemocytometer. Initial solutions of the claimed compounds were diluted with the nutrient medium RPMI-1640 so that the final concentrations of the compounds, which were obtained after introduction of lymphocyte suspension, constituted the raw: 100 µg/ml, 10 µg/ml, 1 µg/ml. The final concentration of lymphocytes in the induction mixture was 3x10^6 cell/ml.
Control and test samples were incubated for 24 hours at the temperature of 37°C. After incubation, the samples were centrifuged at 2,000 G to deposit cell elements, and IFN-containing supernatant was separate out of the samples; then the supernatant was analyzed for the quantitative content of IFN. Cell deposition was resuspended in the preceding volume of nutrient medium, colored with vital dye trypan blue, and cell number was counted in a chamber of a hemocytometer (as described above) to determine cytotoxic action of the compounds.
Quantitative determination of the content of IFN in control and test samples was conducted using the immunoenzyme test system Pro Con IF2 Plus, that is intended for determination of IFN-α, which is produced by TOO "Protein contour". The solid-phase immunoenzyme method, utilizing horse radish peroxidase as an indicator enzyme, was used to determine the quantity of interferon in the samples. Activity of the bonded peroxidase was measured using an automatic photometer for microplates with a microprocessor at the wavelength of 450 nm.
Based on the obtained results, a calibrating curve was formed, which allows to obtain data expressed in international units (IU) of activity, using the microprocessor of the automatic photometer. The results of the analysis are expressed in IU of activity of IFN per ml in the given induction system, which contains 3x10^6 lymphocyte/ml. Each test and control point was investigated in four parallels.
Controls of immunoenzyme reaction: • 1. Control of DMSO with a nutrient medium. • 2. Control of system components (according to an instruction).
The obtained data were undergone a statistical analysis using t-criterion, and calculation of the confident interval of probability at p=0.05 was carried out. Coincidence between the results obtained in the parallel tests was analyzed.

[3] = compound concentration of 100 µg/ml, after 36 hours
[4] = compound concentration of 100 µg/ml, protection of cells from virus as compared to the control of cell culture

Row | Structure (SMILES) | percentage of protection ([1]; Acyclovir 10 µg/ml, as compared to the control of cell culture) | Quantity of the unchanged cells ([1]; Acyclovir 10 µg/ml) | Quantity of the unchanged cells [1, 3] | percentage of protection [1, 4] | Content of IFN in induction mixture after 24-hour incubation ([2]; 1 mg/l) | Content of IFN in induction mixture after 24-hour incubation ([2]; 10 mg/l) | Content of IFN in induction mixture after 24-hour incubation ([2]; 100 mg/l)
1 | Nc1nc2c(ncn2COCCO)c(=O)[nH]1 [Acyclovir, reference compound] | 80% | 8000 | – | – | – | – | –
2 | CCCCOC(=O)Nc1ccc(S(=O)(=O)Nc2ccc(Br)cc2)cc1 [III, Carbobutoxysulfanylic acid (4-bromophenyl)amide] | – | – | 5000 | 50% | 1,4 ± 0,2 IU/3x10^4 lymph./ml | 2,6 ± 0,3 IU/3x10^4 lymph./ml | 3,5 ± 0,2 IU/3x10^4 lymph./ml
3 | CCCCOC(=O)Nc1ccc(S(=O)(=O)Nc2ccccc2Cl)cc1 [IX, Carbobutoxysulfanylic acid (2-chlorophenyl)amide] | – | – | 7000 | 70% | 1,5 ± 0,1 IU/3x10^4 lymph./ml | 2 ± 0,1 IU/3x10^4 lymph./ml | 2,5 ± 0,5 IU/3x10^4 lymph./ml
4 | CCCCCCOC(=O)Nc1ccc(S(=O)(=O)Nc2ccc(Br)cc2)cc1 [V, Carbohexoxysulfanylic acid (4-bromophenyl)amide] | – | – | 5000 | 50% | 1,1 ± 0,1 IU/3x10^4 lymph./ml | 1,4 ± 0,1 IU/3x10^4 lymph./ml | 2 ± 0,3 IU/3x10^4 lymph./ml
5 | CCCCOC(=O)Nc1ccc(S(=O)(=O)Nc2ccccc2C)cc1 [VIII, Carbobutoxysulfanylic acid (2-toluyl)amide] | – | – | 8000 | 80% | – | – | –
6 | CCCCOC(=O)Nc1ccc(S(=O)(=O)Nc2ccccc2)cc1 [XIII, Carbobutoxysulfanylic acid phenylamide] | – | – | 5000 | 50% | 1,5 ± 0,2 IU/3x10^4 lymph./ml | 1,4 ± 0,1 IU/3x10^4 lymph./ml | 2 ± 0,1 IU/3x10^4 lymph./ml
7 | CCCCOC(=O)Nc1ccc(S(=O)(=O)Nc2cc(C)ccc2C)cc1 [XIV, Carbobutoxysulfanylic acid (2,5-dimethyl)amide] | – | – | 7000 | 70% | 1,2 ± 0,1 IU/3x10^4 lymph./ml | 1,8 ± 0,2 IU/3x10^4 lymph./ml | 2 ± 0,2 IU/3x10^4 lymph./ml
8 | CCCCCOC(=O)Nc1ccc(S(=O)(=O)Nc2c(Cl)cccc2Cl)cc1 [XIX, Carbopentoxysulfanylic acid (2,6-dichlorophenyl)amide] | – | – | 8000 | 80% | – | – | –
9 | CCOC(=O)Nc1ccc(S(=O)(=O)Nn2cnnc2)cc1 [XXVI, Carboethoxysulfanylic acid (1,2,4-triazole-4-yl)amide] | – | – | – | – | 1,6 ± 0,1 IU/3x10^4 lymph./ml | 2 ± 0,2 IU/3x10^4 lymph./ml | 2,5 ± 0,5 IU/3x10^4 lymph./ml
10 | CCCCCCCOC(=O)Nc1ccc(S(=O)(=O)Nc2ccccc2Cl)cc1 [XXVII, Carboheptoxysulfanylic acid (2-chlorophenyl)amide] | – | – | – | – | 1,2 ± 0,1 IU/3x10^4 lymph./ml | 1,5 ± 0,3 IU/3x10^4 lymph./ml | 2 ± 0,3 IU/3x10^4 lymph./ml
11 | CCCCCCOC(=O)Nc1ccc(S(=O)(=O)Nc2ccccc2Cl)cc1 [XXVIII, Carbohexoxysulfanylic acid (2-chlorophenyl)amide] | – | – | – | – | 1,4 ± 0,1 IU/3x10^4 lymph./ml | 2,3 ± 0,2 IU/3x10^4 lymph./ml | 3 ± 0,1 IU/3x10^4 lymph./ml
